Data from ChEMBL document CHEMBL3352237, “Synthesis and biological evaluation of novel peptide BF2 as an antibacterial agent against clinical isolates of vancomycin-resistant enterococci” (J Med Chem, 2014).
Converted amounts (≈) assume the structure as drawn.

Tests used:
Type in all cases: functional
Enterococcus faecium [1] = test: Antibacterial activity against vancomycin-resistant Enterococcus faecium clinical isolate 23/240 after overnight incubation by two-fold serial dilution method
Enterococcus faecium [2] = test: Antibacterial activity against vancomycin-resistant Enterococcus faecium clinical isolate 8/224 after overnight incubation by two-fold serial dilution method
Enterococcus faecium [3] = test: Antibacterial activity against vancomycin-resistant Enterococcus faecium clinical isolate 3864 after overnight incubation by two-fold serial dilution method
Enterococcus faecium [4] = test: Antibacterial activity against vancomycin-resistant Enterococcus faecium clinical isolate 31386 after overnight incubation by two-fold serial dilution method
Enterococcus faecium [5] = test: Antibacterial activity against vancomycin-resistant Enterococcus faecium clinical isolate 18906 after overnight incubation by two-fold serial dilution method
Enterococcus faecium [6] = test: Antibacterial activity against vancomycin-resistant Enterococcus faecium clinical isolate 12875 after overnight incubation by two-fold serial dilution method
Enterococcus faecium [7] = test: Antibacterial activity against vancomycin-resistant Enterococcus faecium clinical isolate 30/48 after overnight incubation by two-fold serial dilution method
Enterococcus faecium [8] = test: Antibacterial activity against vancomycin-resistant Enterococcus faecium clinical isolate 31176 after overnight incubation by two-fold serial dilution method
Enterococcus faecium [9] = test: Antibacterial activity against vancomycin-resistant Enterococcus faecium clinical isolate 5396 after overnight incubation by two-fold serial dilution method
Enterococcus faecium [10] = test: Antibacterial activity against vancomycin-resistant Enterococcus faecium clinical isolate 10177 after overnight incubation by two-fold serial dilution method
Enterococcus [11] = test: Antibacterial activity against vancomycin-resistant Enterococcus ATCC 51299 after overnight incubation by two-fold serial dilution method
Enterococcus faecium [12] = test: Antibacterial activity against vancomycin-resistant Enterococcus faecium clinical isolate 5484 after overnight incubation by two-fold serial dilution method
Enterococcus faecium [13] = test: Antibacterial activity against vancomycin-resistant Enterococcus faecium clinical isolate 147969 after overnight incubation by two-fold serial dilution method
Enterococcus faecium [14] = test: Antibacterial activity against vancomycin-resistant Enterococcus faecium clinical isolate 6/22 after overnight incubation by two-fold serial dilution method
Enterococcus [15] = test: Antibacterial activity against vancomycin-resistant Enterococcus ATCC 29212 after overnight incubation by two-fold serial dilution method
Enterococcus faecium [16] = test: Antibacterial activity against vancomycin-resistant Enterococcus faecium clinical isolate 27/221 after overnight incubation by two-fold serial dilution method
Enterococcus faecium [17] = test: Antibacterial activity against vancomycin-resistant Enterococcus faecium clinical isolate 28/211 after overnight incubation by two-fold serial dilution method
Enterococcus faecium [18] = test: Antibacterial activity against vancomycin-resistant Enterococcus faecium clinical isolate 27/16917 after overnight incubation by two-fold serial dilution method; conditions: isolate 27/1691
Enterococcus faecalis [19] = test: Antibacterial activity against vancomycin-resistant Enterococcus faecalis clinical isolate 5642 after overnight incubation by two-fold serial dilution method
Enterococcus faecium [20] = test: Antibacterial activity against vancomycin-resistant Enterococcus faecium clinical isolate 7/27 after overnight incubation by two-fold serial dilution method
Enterococcus faecalis [21] = test: Antibacterial activity against vancomycin-resistant Enterococcus faecalis clinical isolate 22626 after overnight incubation by two-fold serial dilution method
Enterococcus faecium [22] = test: Antibacterial activity against vancomycin-resistant Enterococcus faecium clinical isolate 13246 after overnight incubation by two-fold serial dilution method
Enterococcus faecium [23] = test: Antibacterial activity against vancomycin-resistant Enterococcus faecium clinical isolate 14643 after overnight incubation by two-fold serial dilution method
Enterococcus faecium [24] = test: Antibacterial activity against vancomycin-resistant Enterococcus faecium clinical isolate 16115 after overnight incubation by two-fold serial dilution method
Enterococcus faecalis [25] = test: Antibacterial activity against vancomycin-resistant Enterococcus faecalis clinical isolate 27728 after overnight incubation by two-fold serial dilution method
Enterococcus faecalis [26] = test: Antibacterial activity against vancomycin-resistant Enterococcus faecalis clinical isolate 7670 after overnight incubation by two-fold serial dilution method
Enterococcus faecalis [27] = test: Antibacterial activity against vancomycin-resistant Enterococcus faecalis clinical isolate 5648 after overnight incubation by two-fold serial dilution method
Enterococcus faecalis [28] = test: Antibacterial activity against vancomycin-resistant Enterococcus faecalis clinical isolate 387702 after overnight incubation by two-fold serial dilution method
Enterococcus faecium [29] = test: Antibacterial activity against vancomycin-resistant Enterococcus faecium clinical isolate 12/266 after overnight incubation by two-fold serial dilution method
Enterococcus faecalis [30] = test: Antibacterial activity against vancomycin-resistant Enterococcus faecalis clinical isolate 7077 after overnight incubation by two-fold serial dilution method
Enterococcus faecalis [31] = test: Antibacterial activity against vancomycin-resistant Enterococcus faecalis clinical isolate 7079 after overnight incubation by two-fold serial dilution method
Enterococcus faecium [32] = test: Antibacterial activity against vancomycin-resistant Enterococcus faecium clinical isolate 16475 after overnight incubation by two-fold serial dilution method
Enterococcus faecalis [33] = test: Antibacterial activity against vancomycin-resistant Enterococcus faecalis clinical isolate 21/235 after overnight incubation by two-fold serial dilution method
Enterococcus faecium [34] = test: Antibacterial activity against vancomycin-resistant Enterococcus faecium clinical isolate 15/213 after overnight incubation by two-fold serial dilution method
Enterococcus faecium [35] = test: Antibacterial activity against vancomycin-resistant Enterococcus faecium clinical isolate 151495 after overnight incubation by two-fold serial dilution method
Enterococcus faecalis [36] = test: Antibacterial activity against vancomycin-resistant Enterococcus faecalis clinical isolate 22/203 after overnight incubation by two-fold serial dilution method
Enterococcus faecalis [37] = test: Antibacterial activity against vancomycin-resistant Enterococcus faecalis clinical isolate 5814 after overnight incubation by two-fold serial dilution method
Enterococcus faecium [38] = test: Antibacterial activity against vancomycin-resistant Enterococcus faecium clinical isolate 29/203 after overnight incubation by two-fold serial dilution method
Enterococcus faecalis [39] = test: Antibacterial activity against vancomycin-resistant Enterococcus faecalis clinical isolate 6093 after overnight incubation by two-fold serial dilution method
Enterococcus faecalis [40] = test: Antibacterial activity against vancomycin-resistant Enterococcus faecalis clinical isolate 7846 after overnight incubation by two-fold serial dilution method
Enterococcus faecium [41] = test: Antibacterial activity against vancomycin-resistant Enterococcus faecium clinical isolate 17301 after overnight incubation by two-fold serial dilution method

Compound: CN[C@H](CC(C)C)C(=O)N[C@H]1C(=O)N[C@@H](CC(N)=O)C(=O)N[C@H]2C(=O)N[C@H]3C(=O)N[C@H](C(=O)N[C@H](C(=O)O)c4cc(O)cc(O)c4-c4cc3ccc4O)[C@H](O)c3ccc(c(Cl)c3)Oc3cc2cc(c3O[C@@H]2O[C@H](CO)[C@@H](O)[C@H](O)[C@H]2O[C@H]2C[C@](C)(N)[C@H](O)[C@H](C)O2)Oc2ccc(cc2Cl)[C@H]1O [VANCOMYCIN]
- MIC (Enterococcus faecium [1]): 64 µg/mL (≈ 44.2 µM)
- MIC (Enterococcus faecium [2]): 64 µg/mL (≈ 44.2 µM)
- MIC (Enterococcus faecium [3]): 64 µg/mL (≈ 44.2 µM)
- MIC (Enterococcus faecium [4]): 64 µg/mL (≈ 44.2 µM)
- MIC (Enterococcus faecium [5]): 64 µg/mL (≈ 44.2 µM)
- MIC (Enterococcus faecium [6]): 64 µg/mL (≈ 44.2 µM)
- MIC (Enterococcus faecium [7]): 64 µg/mL (≈ 44.2 µM)
- MIC (Enterococcus faecium [8]): 64 µg/mL (≈ 44.2 µM)
- MIC (Enterococcus faecium [9]): 64 µg/mL (≈ 44.2 µM)
- MIC (Enterococcus faecium [10]): 64 µg/mL (≈ 44.2 µM)
- MIC (Enterococcus [11]): 64 µg/mL (≈ 44.2 µM)
- MIC (Enterococcus faecium [12]): 64 µg/mL (≈ 44.2 µM)
- MIC (Enterococcus faecium [13]): 64 µg/mL (≈ 44.2 µM)
- MIC (Enterococcus faecium [14]): 64 µg/mL (≈ 44.2 µM)
- MIC (Enterococcus [15]): 2 µg/mL (≈ 1.38 µM)
- MIC (Enterococcus faecium [16]): 64 µg/mL (≈ 44.2 µM)
- MIC (Enterococcus faecium [17]): 64 µg/mL (≈ 44.2 µM)
- MIC (Enterococcus faecium [18]): 64 µg/mL (≈ 44.2 µM)

Compound: H-RWRLLLLLKRH-OH
- MIC (Enterococcus faecalis [19]): 25 µg/mL
- MIC (Enterococcus faecium [1]): 25 µg/mL
- MIC (Enterococcus faecium [20]): 25 µg/mL
- MIC (Enterococcus faecalis [21]): 25 µg/mL
- MIC (Enterococcus faecium [2]): 25 µg/mL
- MIC (Enterococcus faecium [22]): 25 µg/mL
- MIC (Enterococcus faecium [23]): 25 µg/mL
- MIC (Enterococcus faecium [3]): 25 µg/mL
- MIC (Enterococcus faecium [4]): 25 µg/mL
- MIC (Enterococcus faecium [24]): 25 µg/mL
- MIC (Enterococcus faecalis [25]): 25 µg/mL
- MIC (Enterococcus faecalis [26]): 25 µg/mL
- MIC (Enterococcus faecium [5]): 25 µg/mL
- MIC (Enterococcus faecium [6]): 25 µg/mL
- MIC (Enterococcus faecalis [27]): 25 µg/mL
- MIC (Enterococcus faecalis [28]): 25 µg/mL
- MIC (Enterococcus faecium [29]): 25 µg/mL
- MIC (Enterococcus faecalis [30]): 25 µg/mL
- MIC (Enterococcus faecium [7]): 25 µg/mL
- MIC (Enterococcus faecium [8]): 25 µg/mL
- MIC (Enterococcus faecium [9]): 25 µg/mL
- MIC (Enterococcus faecium [10]): 25 µg/mL
- MIC (Enterococcus faecalis [31]): 25 µg/mL
- MIC (Enterococcus faecium [32]): 25 µg/mL
- MIC (Enterococcus [11]): 25 µg/mL
- MIC (Enterococcus faecium [12]): 25 µg/mL
- MIC (Enterococcus faecalis [33]): 25 µg/mL
- MIC (Enterococcus faecium [34]): 25 µg/mL
- MIC (Enterococcus faecium [13]): 25 µg/mL
- MIC (Enterococcus faecium [35]): 25 µg/mL
- MIC (Enterococcus faecium [14]): 25 µg/mL
- MIC (Enterococcus faecalis [36]): 25 µg/mL
- MIC (Enterococcus [15]): 25 µg/mL
- MIC (Enterococcus faecium [16]): 25 µg/mL
- MIC (Enterococcus faecalis [37]): 25 µg/mL
- MIC (Enterococcus faecium [38]): 25 µg/mL
- MIC (Enterococcus faecium [17]): 25 µg/mL
- MIC (Enterococcus faecalis [39]): 25 µg/mL
- MIC (Enterococcus faecalis [40]): 25 µg/mL
- MIC (Enterococcus faecium [18]): 25 µg/mL
- MIC (Enterococcus faecium [41]): 25 µg/mL

Compound: H-RWRLLLLKKF-OH
- MIC (Enterococcus faecalis [19]): 25 µg/mL
- MIC (Enterococcus faecium [1]): 25 µg/mL
- MIC (Enterococcus faecium [20]): 25 µg/mL
- MIC (Enterococcus faecalis [21]): 25 µg/mL
- MIC (Enterococcus faecium [2]): 25 µg/mL
- MIC (Enterococcus faecium [22]): 25 µg/mL
- MIC (Enterococcus faecium [23]): 25 µg/mL
- MIC (Enterococcus faecium [3]): 25 µg/mL
- MIC (Enterococcus faecium [4]): 25 µg/mL
- MIC (Enterococcus faecium [24]): 25 µg/mL
- MIC (Enterococcus faecalis [25]): 25 µg/mL
- MIC (Enterococcus faecalis [26]): 25 µg/mL
- MIC (Enterococcus faecium [5]): 25 µg/mL
- MIC (Enterococcus faecium [6]): 25 µg/mL
- MIC (Enterococcus faecalis [27]): 25 µg/mL
- MIC (Enterococcus faecalis [28]): 25 µg/mL
- MIC (Enterococcus faecium [29]): 25 µg/mL
- MIC (Enterococcus faecalis [30]): 25 µg/mL
- MIC (Enterococcus faecium [7]): 25 µg/mL
- MIC (Enterococcus faecium [8]): 25 µg/mL
- MIC (Enterococcus faecium [9]): 25 µg/mL
- MIC (Enterococcus faecium [10]): 25 µg/mL
- MIC (Enterococcus faecalis [31]): 25 µg/mL
- MIC (Enterococcus faecium [32]): 25 µg/mL
- MIC (Enterococcus [11]): 25 µg/mL
- MIC (Enterococcus faecium [12]): 25 µg/mL
- MIC (Enterococcus faecalis [33]): 25 µg/mL
- MIC (Enterococcus faecium [34]): 25 µg/mL
- MIC (Enterococcus faecium [13]): 25 µg/mL
- MIC (Enterococcus faecium [35]): 25 µg/mL
- MIC (Enterococcus faecium [14]): 25 µg/mL
- MIC (Enterococcus faecalis [36]): 25 µg/mL
- MIC (Enterococcus [15]): 25 µg/mL
- MIC (Enterococcus faecium [16]): 25 µg/mL
- MIC (Enterococcus faecalis [37]): 25 µg/mL
- MIC (Enterococcus faecium [38]): 25 µg/mL
- MIC (Enterococcus faecium [17]): 25 µg/mL
- MIC (Enterococcus faecalis [39]): 25 µg/mL
- MIC (Enterococcus faecalis [40]): 25 µg/mL
- MIC (Enterococcus faecium [18]): 25 µg/mL
- MIC (Enterococcus faecium [41]): 25 µg/mL
